The text below walks through data of publication PMC6104695 (Virulence, 2017).

The subject of experiment [1] is B. anthracis Sterne spores. Nature of the experiment: microbe, parasite or virus in culture. Conditions: Bacillus anthracis, 3 h, pH 7.4, read-out: Sporicidal EC50 (95% Confidence Interval).
Experiment [2] deals with B. anthracis Sterne spores. Also noted: species or system Galleria mellonella. Conditions: in vivo.
In experiment [3] the test system is B. anthracis Sterne vegetative bacteria. Conditions: 24 h.
Experiment [4] has as its system B. anthracis. The conditions noted are these: mouse, in vivo, sc; cited from earlier work.

Values after ≈ are worked out from the molar mass of the structure shown. Values joined by “and” are separate entries in the source; they are usually repeats but may differ in a detail not shown here. Equal entries are not always repeated. Ends that are not written are not given here. Peptide text beside a SMILES is read from it.

As a reminder, the EC50 is the concentration needed to bring the measured effect to its halfway point. As usually defined, the MIC is the smallest concentration in the dilution series that meets the test's criterion for growth inhibition. A high value points to weaker potency.

`O=C(O)c1cn(C2CC2)c2cc(N3CCNCC3)c(F)cc2c1=O` [Ciprofloxacin]: the EC50 in experiment [1] is 70.8 µg/mL and > 100 µM. Further, in experiment [2], the “Rescue of infected waxworms by ciprofloxacin” value came to 100% and the “Survival (%) of B. anthracis infected G. mellonella larvae” value was 100%.

`CC[C@H](C)[C@H](NC(=O)[C@H](CCCCN)NC(=O)[C@H](CCC(=O)O)NC(=O)[C@H](CCCCN)NC(=O)[C@H](CO)NC(=O)[C@H](CCCCN)NC(=O)[C@H](CCCNC(=N)N)NC(=O)[C@H](Cc1ccccc1)NC(=O)[C@H](Cc1ccccc1)NC(=O)[C@H](CC(=O)O)NC(=O)CNC(=O)[C@H](CC(C)C)NC(=O)[C@@H](N)CC(C)C)C(=O)NCC(=O)N[C@@H](CCCCN)C(=O)N[C@@H](CCC(=O)O)C(=O)N[C@@H](Cc1ccccc1)C(=O)N[C@@H](CCCCN)C(=O)N[C@@H](CCCNC(=N)N)C(=O)N[C@H](C(=O)N[C@H](C(=O)N[C@@H](CCC(N)=O)C(=O)N[C@@H](CCCNC(=N)N)C(=O)N[C@H](C(=O)N[C@@H](CCCCN)C(=O)N[C@@H](CC(=O)O)C(=O)N[C@@H](Cc1ccccc1)C(=O)N[C@@H](CC(C)C)C(=O)N[C@@H](CCCNC(=N)N)C(=O)N[C@@H](CC(N)=O)C(=O)N[C@@H](CC(C)C)C(=O)N[C@H](C(=O)N1CCC[C@H]1C(=O)N[C@@H](CCCNC(=N)N)C(=O)N[C@H](C(=O)N[C@@H](CCC(=O)O)C(=O)N[C@@H](CO)C(=O)O)[C@@H](C)O)C(C)C)[C@@H](C)CC)C(C)C)[C@@H](C)CC` [LL-37] gave an MIC in experiment [3] of 7.12 µM (≈ 32 µg/mL).

In the case of `CC(C)C[C@H](NC(=O)[C@H](CCCNC(=N)N)NC(=O)CNC(=O)CNC(=O)[C@@H](N)CCCNC(=N)N)C(=O)N[C@@H](CS)C(=O)N[C@@H](Cc1ccc(O)cc1)C(=O)N[C@@H](CS)C(=O)N[C@@H](CCCNC(=N)N)C(=O)N[C@@H](CCCNC(=N)N)C(=O)N[C@@H](CCCNC(=N)N)C(=O)N[C@@H](Cc1ccccc1)C(=O)N[C@@H](CS)C(=O)N[C@H](C(=O)N[C@@H](CS)C(=O)N[C@H](C(=O)NCC(=O)N[C@@H](CCCNC(=N)N)C(=O)O)C(C)C)C(C)C` [PG-1] (H-RGGRLCYCRRRFCVCVGR-OH; N-terminus and C-terminus assumed), in experiment [3], the MIC is recorded as 7.41 µM (≈ 16 µg/mL). Besides, the “Survival of infected mice” value in experiment [4] is reported as 80%.

In experiment [3], “GLKLRFEFSKIKGEFLKTPEVRFRDIKLKDNRISVQR [Scrambled LL-37]” yielded an MIC above 150 µM.

In experiment [3], “GLLRKGGEKIGEKLKKIGQKIKNFFQKLVPQPEQ [mCRAMP]” displayed a minimal inhibitory concentration (MIC) of 16.5 µM. This lies in the double-digit micromolar range.
